Legend:
KCHSC (kochia) = assay: Post-emergence herbicidal activity, cool season; format: in vivo, Kochia scoparia; conditions: abraded plants sprayed; GR80 = lowest tested rate (300, 100, 30, 10 g/ha) with 80% or greater inhibition; approx. 14 days after treatment; 18/13° C.
Method: (§1) In another set of tests, the post-emergence activity of compounds of this invention was evaluated on the cool season species listed above. The following procedure was used.
(§2) A pre-prepared topsoil mixture (described above) was placed in a pot and compacted to a depth of 1.0 to 1.25 cm from the top of the pot. Seeds of each of several monocotyledonous and dicotyledonous annual plant species were placed on top of the soil. The seeds were covered with a mixture of 50% topsoil and 50% Rediearth™ in sufficient quantity to level-fill the pots. The pots were then placed on a greenhouse bench and subirrigated as needed.
(§3) When plants growing from the seeds had emerged and reached a suitable growth stage for post-emergence treatment, typically 9 to 14 days after planting, above-ground parts of the plants were subjected to a pre-treatment involving abrasion to create greater opportunity for foliar uptake of subsequently applied compounds. Abrasion was performed using garnet 200w particles applied with a Sears Craftsman hand-held sandblaster operated at approximately 850 kPa (50 psig) pressure. […]
(§4) After treatment the plants were placed in a greenhouse with an 18/13° C. day/night temperature regime and were subsequently watered as needed for growth. Approximately 14 days after treatment, the plants were observed and herbicidal efficacy recorded as percent inhibition by comparison with control plants. […]

[1] = system: VERPE (creeping speedwell); assay: Post-emergence herbicidal activity, cool season; format: in vivo, Veronica persicaria; conditions: abraded plants sprayed; GR80 = lowest tested rate (300, 100, 30, 10 g/ha) with 80% or greater inhibition; approx. 14 days after treatment; 18/13° C.
Method: as §1, §2, §3, §4

soybean (GLYMX) = assay: Selectivity test, pre-emergence, warm season crop; format: in vivo; conditions: Glycine max, pre-emergence application, read-out: Percent inhibition, crop GLYMX
Method: (§5) The pre-emergence tests were conducted by the following procedure. Topsoil was sieved to pass through a 1.27 cm screen. Fertilizer was added to the topsoil and the mixture was then sterilized by heating. The topsoil mixture was placed in a pot and compacted to a depth of 1.0 to 1.25 cm from the top of the pot. Seeds of each of several monocotyledonous and dicotyledonous annual plant species were placed on top of the soil. Additional soil was subsequently placed over the seeds to level-fill the pot. A known amount of each test compound dissolved or suspended in an appropriate organic solvent was diluted with a 50:50 mix of acetone and water and applied to the surface of the soil. After treatment the plants were placed in a greenhouse where they received 0.64 cm of overhead irrigation. All subsequent watering consisted of a light overhead mist and/or subirrigation as needed for germination and growth. Tables 5 and 6 below relate to warm season plant species which were placed after pre-emergence treatment in a greenhouse with a 30/21° C. day/night temperature regime. Tables 7 and 8 below relates to cool season plant species placed after pre-emergence treatment in a greenhouse or growth chamber with an 18/13° C. day/night temperature regime.
(§6) Approximately 14 days after planting and treating, the plants were observed and herbicidal efficacy recorded as percent inhibition by comparison with untreated plants.
Additional pre-emergence and PPI tests were conducted by the procedures described above, on warm and cool season weed species in the presence of crop species, to assess herbicidal selectivity. Crop species included in warm season tests were corn (Zea mays, ZEAMX), rice (Oryza sativa, ORYSA) and soybean (Glycine max, GLYMX). Crop species included in cool season tests were wheat (Triticum aestivum, TRZAW), barley (Hordeunm vulgare, HORVX) and oilseed rape (Brassica napus, BRSNS).
Tables 15 and 16 relate to pre-emergence and PPI tests respectively on warm season species. Table 17 relates to pre-emergence tests on cool season species.

[2] = system: AEGCY (jointed goatgrass); assay: Pre-emergence herbicidal activity, cool season; format: in vivo, Aegilops cylindrica; conditions: GR80 = lowest tested rate (300, 100, 30, 10 g/ha) with 80% or greater inhibition; approx. 14 days after treating; 18/13° C.
Method: Tables 5 to 8 summarize results of tests conducted as described below to determine the pre-emergence herbicidal activity, in the form of a GR80 value, of illustrative compounds of this invention. […] Compounds of the invention were typically applied at rates of 300, 100, 30, and 10 g/ha. Where herbicidal activity was evident but 80% inhibition was not achieved at the highest rate tested, an asterisk (*) is shown in the following tables.
as §5, §6
The plant species usually regarded as weeds which were utilized in the tests are identified in the tables below according to the following legend, in which “d” indicates a dicotyledonous species and “m” a monocotyledonous species. All monocotyledonous species included in the tests herein are grasses.

SASKR (russian thistle) = assay: Post-emergence herbicidal activity, cool season; format: in vivo, Salsola kali; conditions: abraded plants sprayed; GR80 = lowest tested rate (300, 100, 30, 10 g/ha) with 80% or greater inhibition; approx. 14 days after treatment; 18/13° C.
Method: as §1, §2, §3, §4

SMILES | Post-emergence activity (GR80) KCHSC (KCHSC (kochia)) | Post-emergence activity (GR80) VERPE [1] | inhibition at 10 g/ha (soybean (GLYMX)) | inhibition at 30 g/ha (soybean (GLYMX)) | inhibition at 100 g/ha (soybean (GLYMX)) | inhibition at 900 g/ha (soybean (GLYMX)) | Pre-emergence activity (GR80) AEGCY [2] | Post-emergence activity (GR80) SASKR (SASKR (russian thistle)) | inhibition at 300 g/ha (soybean (GLYMX); 300 g/ha)
CCN(CC)C(=O)n1cnc(S(=O)(=O)C(F)(F)Br)n1 [Example 1, 3-(bromodifluoromethylsulfonyl)-1-(N,N-diethylcarbamoyl)-1,2,4-triazole] | 100 g/ha | 300 g/ha | 0% | 0% | 0% | 0% | – | – | –
CCN(CC)C(=O)n1cnc(S(=O)(=O)C(F)(F)C(F)(F)Br)n1 [Example 4] | – | – | – | – | – | – | * (activity observed, at least at highest rate, but <80% inhibition) | – | –
CCN(CC)C(=O)n1cnc(S(=O)(=O)C(F)F)n1 [Example 15, 1-(N,N-diethylcarbamoyl)-3-(difluoromethylsulfonyl)-1,2,4-triazole] | 100 g/ha | – | 0% | 0% | 0% | 10% | – | 100 g/ha | 0%

Source: patent US6461997B1, “Triazole sulfones having herbicidal activity” (Monsanto Technology LLC, priority 1999, dated 2002)
